# Where two headings read alike, the source gives them in different places. Where a SMILES comes first, the peptide text is derived from it.
# Key:
# Experiment in all cases: microbe, parasite or virus in culture
# Type in all cases: cell-based
# [1] = system: Escherichia coli ATCC 25922
# Description: (§1) Antimicrobial testing of 78 cathelicidin MPs was performed in two phases as outlined in Figure 1 . In phase I, 40 peptides (27 extant and 13 ancestral) were selected for testing based on rank (outlined above) and similarity to published marsupial cathelicidins with known antimicrobial activity ([33], [41]–[43]). These peptides were tested against nine bacteria (Staphylococcus aureus ATCC 29213 and clinical isolate, Escherichia coli ATCC 25922 and clinical isolate, Pseudomonas aeruginosa ATCC 27853 and clinical isolate, Streptococcus agalactiae ATCC 12386 and clinical isolate, Streptococcus pneumoniae ATCC 49619) and three fungi (Candida krusei ATCC 6258, Candida parapsilosis ATCC 22019, and Candida albicans clinical isolate). Details regarding these strains are available in Supplementary Table 4 . The antimicrobial activity of cathelicidins was determined as the minimum inhibitory concentration (MIC), which was the lowest concentration of cathelicidin that prevented visible bacterial or fungal growth, relative to the negative control. […] Minimum bactericidal concentration (MBC) and/or minimum fungicidal concentration (MFC) was conducted to determine microbicidal versus static action. Activity against S. aureus ATCC, E. coli ATCC, and Pseudomonas aeruginosa ATCC 27853 was examined in the presence of divalent cations to determine the impact of inhibitors.
# (§2) In phase II, the remaining 38 peptides (37 extant and one ancestral) were tested against six bacteria (S. aureus ATCC and clinical isolate, E. coli ATCC and clinical isolate, and P. aeruginosa ATCC and clinical isolate). […] No further testing on phase II peptides was performed. Detailed methods for all assays are provided in subsequent sections.
# (§3) Antimicrobial activity was determined using a broth microdilution susceptibility assay in 96 well polypropylene plates according to Clinical Laboratory Standards Institute guidelines M07-A and M26A as described previously ([33], [42], [43]). The bacterial and fungal isolates from humans and animals used in this study are outlined in Supplementary Table 4 . Only yeasts were included in the panel of fungi as they have been used in the susceptibility testing of eutherian ([3], [81]–[83]) and other marsupial cathelicidins previously ([33], [42], [43]). Cathelicidin mature peptides were solubilized in DMSO and serially diluted in duplicate from 128-0.25μg/mL in a final volume of 100µL. For bacteria, cathelicidins were diluted in Mueller Hinton Broth (MHB) with or without 10% lysed horse blood, and with (MH II B) or without (MHB) calcium and magnesium cations. For fungi, cathelicidins were diluted in Roswell Park Memorial Institute medium (RPMI)-1640 MOPS. Ampicillin or tetracycline were included as a positive control for Gram-positive and -negative bacteria respectively, while amphotericin B was used for fungi. A media-only negative control and growth control (no cathelicidin) were also included on each plate. Bacteria were sub-cultured on Muller Hinton agar (MHA) or sheep blood agar (BA), and fungi on Sabouraud dextrose agar (SAB), 20–24 hours prior to the test. Colonies were suspended in saline, the concentration adjusted to a 0.5 McFarland standard, and then diluted in media to a concentration of 1.0 x 10^6 cells/mL. Then, 100μL was added to each well of the cathelicidin dilution plate, giving a final inoculum density of 5 x 10^5 CFU/mL and cathelicidin concentration of 64-0.125μg/mL. Colony counts were performed on MHA/BA/SAB to confirm inoculum density. All plates were incubated at 35°C for 20–24 hours, depending on the strain.
# (§4) Colonies were counted and compared to the colony count of the starting inoculum.
# [2] = system: Escherichia coli clinical isolate - animal
# Description: as §1, §2, §3, §4
# [3] = system: Pseudomonas aeruginosa ATCC 27853
# Description: as §1, §2, §3, §4
# [4] = system: Pseudomonas aeruginosa clinical isolate - animal
# Description: as §1, §2, §3, §4
# [5] = system: Staphylococcus aureus ATCC 29213; settings: for MIC: read-out: MIC S. aureus ATCC
# Description: as §1, §2, §3, §4
# [6] = system: Staphylococcus aureus clinical isolate - animal; settings: for MIC: read-out: MIC S. aureus
# Description: as §1, §2, §3, §4
# [7] = ATCC 27853, read-out: MIC P. aeruginosa ATCC
# [8] = clinical isolate - animal, read-out: MIC P. aeruginosa
# [9] = clinical isolate, µM equivalent of Table 3
smiles,measurement,setting,value
CC[C@H](C)[C@H](NC(=O)[C@H](CCCNC(=N)N)NC(=O)[C@H](CCCNC(=N)N)NC(=O)[C@H](C)N)C(=O)N[C@@H](CCCNC(=N)N)C(=O)N[C@@H](CCCNC(=N)N)C(=O)N1CCC[C@H]1C(=O)N[C@@H](Cc1ccc(O)cc1)C(=O)N[C@@H](CC(C)C)C(=O)N1CCC[C@H]1C(=O)N[C@@H](CCCNC(=N)N)C(=O)N1CCC[C@H]1C(=O)N[C@@H](CCCNC(=N)N)C(=O)N1CCC[C@H]1C(=O)N[C@@H](CCCNC(=N)N)C(=O)N1CCC[C@H]1C(=O)N[C@@H](CC(N)=O)C(=O)N[C@@H](Cc1ccccc1)C(=O)N1CCC[C@H]1C(=O)N1CCC[C@H]1C(=O)N1CCC[C@H]1C(=O)N[C@@H](CCCNC(=N)N)C(=O)N1CCC[C@H]1C(=O)N[C@@H](CCCNC(=N)N)C(=O)N1CCC[C@H]1C(=O)NCC(=O)N[C@@H](CCCNC(=N)N)C(=O)N[C@@H](CO)C(=O)N[C@H](C(=O)O)C(C)C [AnstCath2] (H-ARRIRRPYLPRPRPRPNFPPPRPRPGRSV-OH),MBC E. coli ATCC,[1]; ATCC 25922,4.5 µM
same,MIC E. coli ATCC,[1]; ATCC 25922,4.5 µM
same,MBC E. coli,[2]; clinical isolate - animal,18.2 µM
same,MIC,[2]; clinical isolate - animal,9.1 µM
same,MIC,[3]; [7],>18.2 µM
same,MIC,[4]; [8],>18.2 µM
same,MIC,[5]; ATCC 29213,>18.2 µM
same,MIC,[6]; clinical isolate - animal,>18.2 µM
CC[C@H](C)[C@H](NC(=O)[C@H](CC(N)=O)NC(=O)[C@H](CCCNC(=N)N)NC(=O)[C@H](CC(C)C)NC(=O)[C@H](CCCCN)NC(=O)[C@H](CCCNC(=N)N)NC(=O)[C@H](Cc1ccccc1)NC(=O)[C@@H](NC(=O)[C@H](CC(N)=O)NC(=O)[C@H](CCC(N)=O)NC(=O)[C@H](CC(C)C)NC(=O)[C@@H](NC(=O)[C@H](CCCNC(=N)N)NC(=O)[C@H](Cc1ccc(O)cc1)NC(=O)[C@H](CCCCN)NC(=O)[C@H](CCC(N)=O)NC(=O)[C@H](Cc1ccc(O)cc1)NC(=O)[C@@H](NC(=O)[C@H](CC(C)C)NC(=O)[C@@H](N)CC(N)=O)[C@@H](C)CC)[C@@H](C)CC)C(C)C)C(=O)N[C@@H](Cc1ccccc1)C(=O)N[C@@H](CO)C(=O)N[C@@H](CCCNC(=N)N)C(=O)NCC(=O)N[C@@H](CCCNC(=N)N)C(=O)N[C@@H](CC(=O)O)C(=O)N[C@@H](CC(=O)O)C(=O)N[C@@H](CCCCN)C(=O)N[C@@H](CCC(=O)O)C(=O)O [MaruCath9] (H-NLIYQKYRILQNVFRKLRNIFSRGRDDKE-OH),MIC,"[1]; ATCC 25922, read-out: MIC E. coli ATCC",>17.3 µM
same,MIC,[2]; clinical isolate - animal,>17.3 µM
same,MIC,[3]; [7],>17.3 µM
same,MIC,[4]; [8],>17.3 µM
same,MBC S. aureus ATCC,[5]; ATCC 29213,8.6 µM
same,MIC S. aureus ATCC,[5]; ATCC 29213,8.6 µM
same,MBC S. aureus,[6]; clinical isolate - animal,8.6 µM
same,MIC S. aureus,[6]; clinical isolate - animal,8.6 µM
CC[C@H](C)[C@H](NC(=O)[C@H](CO)NC(=O)[C@H](CCCNC(=N)N)NC(=O)CNC(=O)[C@@H]1CCCN1C(=O)[C@H](CCCNC(=N)N)NC(=O)[C@@H]1CCCN1C(=O)[C@H](CCCNC(=N)N)NC(=O)[C@@H]1CCCN1C(=O)[C@H](CCCNC(=N)N)NC(=O)[C@@H]1CCCN1C(=O)[C@H](Cc1ccccc1)NC(=O)[C@H](CC(N)=O)NC(=O)[C@@H]1CCCN1C(=O)[C@H](CCCNC(=N)N)NC(=O)[C@@H]1CCCN1C(=O)[C@H](Cc1ccccc1)NC(=O)[C@H](CCCNC(=N)N)NC(=O)[C@@H]1CCCN1C(=O)[C@H](CCCNC(=N)N)NC(=O)[C@@H]1CCCN1C(=O)[C@H](CC(C)C)NC(=O)[C@H](Cc1ccc(O)cc1)NC(=O)[C@@H]1CCCN1C(=O)[C@H](CCCNC(=N)N)NC(=O)[C@H](CCCNC(=N)N)NC(=O)[C@@H](NC(=O)[C@H](CCCNC(=N)N)NC(=O)[C@H](CCCNC(=N)N)NC(=O)[C@H](C)NC(=O)[C@H](C)NC(=O)[C@H](CC(C)C)NC(=O)[C@H](CC(C)C)NC(=O)CN)[C@@H](C)CC)C(=O)O [SmcrCath12] (H-GLLAARRIRRPYLPRPRFPRPNFPRPRPRPGRSI-OH),MBC E. coli ATCC,"[1]; value in brackets, µM equivalent of Table 3",1.9 µM
same,MIC E. coli ATCC,[1]; µM equivalent of Table 3,1.9 µM
same,MBC E. coli,"[2]; clinical isolate, value in brackets, µM equivalent of Table 3",3.9 µM
same,MIC E. coli,[2]; [9],3.9 µM
same,MIC,"[3]; µM equivalent of Table 3, read-out: MIC P. aeruginosa ATCC",>15.6 µM
same,MIC,"[4]; clinical isolate, µM equivalent of Table 3, read-out: MIC P. aeruginosa",>15.6 µM
same,MIC,[5]; µM equivalent of Table 3,>15.6 µM
same,MIC,[6]; [9],>15.6 µM
CC[C@H](C)[C@H](NC(=O)CNC(=O)[C@H](Cc1ccccc1)NC(=O)CNC(=O)[C@@H](NC(=O)[C@@H](NC(=O)[C@H](CCCNC(=N)N)NC(=O)[C@H](CCCNC(=N)N)NC(=O)[C@H](CCCNC(=N)N)NC(=O)[C@@H](NC(=O)[C@H](CO)NC(=O)[C@H](CC(N)=O)NC(=O)[C@H](CCCCN)NC(=O)[C@H](CC(C)C)NC(=O)[C@H](CCCCN)NC(=O)[C@H](CCSC)NC(=O)CNC(=O)[C@@H](NC(=O)[C@H](CCCCN)NC(=O)[C@H](CCCCN)NC(=O)[C@@H](NC(=O)[C@@H](NC(=O)[C@H](CC(=O)O)NC(=O)[C@H](Cc1c[nH]c2ccccc12)NC(=O)[C@H](CC(C)C)NC(=O)CNC(=O)[C@H](CCCNC(=N)N)NC(=O)[C@@H](N)CCCCN)[C@@H](C)O)C(C)C)[C@@H](C)O)[C@@H](C)CC)C(C)C)[C@@H](C)O)C(=O)NCC(=O)N[C@H](C(=O)N[C@@H](C)C(=O)N[C@H](C(=O)N[C@@H](CC(C)C)C(=O)N[C@H](C(=O)N1CCC[C@H]1C(=O)N[C@@H](CCCNC(=N)N)C(=O)O)C(C)C)[C@@H](C)CC)[C@@H](C)O [LahiCath5] (H-KRGLWDTVKKTGMKLKNSIRRRVTGFGIGTAILVPR-OH),MBC E. coli ATCC,[1]; ATCC 25922,3.9 µM
same,MIC E. coli ATCC,[1]; ATCC 25922,3.9 µM
same,MBC E. coli,[2]; clinical isolate - animal,7.8 µM
same,MIC,[2]; clinical isolate - animal,3.9 µM
same,MIC,[3]; [7],>15.7 µM
same,MIC,[4]; [8],>15.7 µM
same,MIC,[5]; ATCC 29213,>15.7 µM
same,MIC,[6]; clinical isolate - animal,>15.7 µM
"CN(C)[C@@H]1C(O)=C(C(N)=O)C(=O)[C@@]2(O)C(O)=C3C(=O)c4c(O)cccc4[C@@](C)(O)[C@H]3C[C@@H]12 [Tetracycline, reference compound]",MIC,"[3]; Pseudomonas aeruginosa, ATCC27853, MHB without cations, 5 x 10^5 CFU/mL, 35°C 20–24 hours, duplicate, read-out: MIC P. aeruginosa ATCC",32 µg/mL
same,MIC,"[3]; Pseudomonas aeruginosa, ATCC27853, superscript value, cation-adjusted Mueller Hinton broth, read-out: MIC in the presence of cations P. aeruginosa ATCC",32 µg/mL
same,MIC,"[3]; Pseudomonas aeruginosa, ATCC27853, superscript value, cation-adjusted Mueller Hinton broth, µM equivalent, read-out: MIC in the presence of cations P. aeruginosa ATCC",72 µM
same,MIC,"[3]; Pseudomonas aeruginosa, ATCC27853, µM equivalent of Table 3, read-out: MIC P. aeruginosa ATCC",72 µM
same,MIC,"[4]; Pseudomonas aeruginosa, clinical isolate, MHB without cations, 5 x 10^5 CFU/mL, 35°C 20–24 hours, duplicate, read-out: MIC P. aeruginosa",32 µg/mL
same,MIC,"[4]; Pseudomonas aeruginosa, clinical isolate, superscript value, cation-adjusted Mueller Hinton broth, read-out: MIC in the presence of cations P. aeruginosa",32 µg/mL
same,MIC,"[4]; Pseudomonas aeruginosa, clinical isolate, superscript value, cation-adjusted Mueller Hinton broth, µM equivalent, read-out: MIC in the presence of cations P. aeruginosa",72 µM
same,MIC,"[4]; Pseudomonas aeruginosa, clinical isolate, µM equivalent of Table 3, read-out: MIC P. aeruginosa",72 µM
